In one series the test system is HaK tumors. The class given is in vivo, hamsters. The following applies: CP twice weekly.
Series [1] deals with Ad5. Briefly: HDP-CDV in Ad5-infected normal and CP-immunosuppressed Syrian hamsters. The class given is in vivo. Particulars: 2.5 mg/kg oral gavage daily for 6 days, Days 3 and 6. The procedure:
FIGS. 12A-12D are graphical representations illustrating HDP-CDV decreasing adenovirus induced liver toxicity and viral load.
Syrian hamsters (females, average weight 98 g) were immunosuppressed with twice weekly injections of cyclophosphamide (starting on Day −6; 140 mg/kg i.p. for the first dose, then 100 mg/kg). On Day 0, the animals were injected intravenously (into the jugular vein) with 1.9×10^12 vp/kg (ca. 3×10^10 PFU/animal) of Ad5 or AdCMVpA, and half of them were treated with HDPCDV (2.5 mg/kg via oral gavage daily for 6 days, starting on Day −1). On Days 3 and 6, hamsters were sacrificed and their sera were analyzed for transaminases (panel A=ALT; panel B=AST) and bilirubin (panel C). Infectious virus titers in the liver were determined, by TCID50 assays; the dashed line in the graph marks the threshold of quantifiability, horizontal lines represent group means, n-4, except for clinical chemistry for the Ad5 CP group on Day 6 (n=2); the error bars represent standard deviation.

The test system of series [2] is Ad5. Briefly: HDP-CDV in Ad5-infected immunosuppressed mice. The class given is in vivo. Particulars: daily 2.5 mg/kg oral gavage. The protocol:
Immunocompetent mice and mice immunosuppressed with CP were injected intravenously with 1.5×10^11 vp/kg of Ad5 or AdCMVpA, a replication defective adenovirus. Half of the animals in each group were treated via oral gavage with daily doses of 2.5 mg/kg of HDP-CDV, starting a day before virus injection. At the indicated times, mice were sacrificed and infectious virus titers in the liver were determined.

In another series the test system is VRX-007. Briefly: Cidofovir inhibition of VRX-007 replication in A549 cells (crystal violet staining). The class given is cell-based, human adenovirus. The following applies: 10 or 0.1 PFU/cell, stained seven days post infection. The procedure: A549 cells were mock-infected or infected with 10 or 0.1 plaque-forming units (PFU)/cell of VRX-007. Concomitantly, cidofovir was added to the medium at the indicated concentrations. The cells were stained with crystal violet dye at seven days post infection. Cidofovir has shown some efficacy in the rabbit and cotton rat models of ocular models of Ad5 infection.

Series [3] has as its system Ad serotypes 1, 2, 5, and 8. Particulars: cited from earlier work.
For series [4], the system named is Ad serotypes from Species A, B, C, D, E, and F in HEp-2 cells. The following applies: cited from earlier work.
The test system of series [5] is Ad5. The following applies: rabbit; cited from earlier work.
The subject of series [6] is Ad5. Particulars: cotton rat; cited from earlier work.
Another series relates to Ad ocular infections. Particulars: large multi-center trial, humans, cited from earlier work.
The test system of another series is Ad. Particulars: cited from earlier work.
For series [7] the following is noted: in vivo; cited from earlier work.
The mark [8] stands for this setting: prospective study, eight pediatric stem cell transplant patients.

Read-outs that look alike come from different tables or passages of the source.

Method for HaK tumors: In an illustrative example, a tumor experiment in hamsters immunosuppressed with cyclophosphamide (CP) was conducted. Hamsters with very large (about 1.1 ml mean) established tumors (formed by the hamster renal cancer cell line named HaK) were treated with CP on day 1, then starting on day 4 the tumors were injected with VRX-007, Ad5, or buffer. CP was administered twice weekly throughout the study. […] Established large, about 1.1 ml, subcutaneous HaK tumors were injected intratumorally (6 injections, 1×10^10 PFU each) with VRX-007, wild-type Ad5, or vehicle (saline only). For each of these treatments, one group was immunosuppressed with CP and one group remained immunocompetent. Tumor volumes were measured with digital calipers twice per week. […] The tumors are from the 42 day time point.

`O=P1(N(CCCl)CCCl)NCCCO1` (stereo not shown) [CP, cyclophosphamide]: the “growth of buffer-injected tumors” value in the series on HaK tumors was “did not affect growth”. The “total white blood cell (WBC) count” value (CP twice weekly) is recorded as “dropped to very low levels by day 12”. For the same molecule, the “hemoglobin level (average)” value (CP-treated hamsters, end of experiment (42 days), 15.95 g/dl at the start) is 6.95 g/dL. For the same molecule, under “CP-treated hamsters, end of experiment, 8.39×10^6/mm^3 at the start”, the “red blood cells (RBC)” value was 3.96×10^6 mm^3.
As to `CCCCCCCCCCCCCCCCOCCCOP(=O)(O)CO[C@H](CO)Cn1ccc(N)nc1=O` [HDP-CDV, Hexadecyloxypropyl-cidofovir], in the series on Ad5 [1], the “adenoviral loads (infectious virus titers in the liver, TCID50)” value was “effectively and significantly reduces”; the “liver toxicity (ALT, AST, bilirubin)” value is “effectively and significantly reduces liver toxicity”. For the same molecule, in the series with Ad5 [2], the “replication of Ad5 (infectious virus titers in the liver)” value is “suppressing the replication”.
Regarding `Nc1ccn(C[C@@H](CO)OCP(=O)(O)O)c(=O)n1` [cidofovir, (S)-9-[3-hydroxy-2-(phosphonomethyloxy)propyl] cytosine], the “inhibition of replication of VRX-007” value in the series with VRX-007 was “inhibits the replication”. Besides, in series [3], the “inhibition of Ad replication in cell culture” value is recorded as “potent, nontoxic inhibitor”. Besides, the “inhibition of Ad replication by species” value in series [4] is “inhibited replication in HEp-2 cells of serotypes from Species A, B, D, E, and F”. Besides, the “efficacy in ocular model of Ad5 infection” value in the series with Ad5 [5] is recorded as “some efficacy”. For the same molecule, the “efficacy in ocular model of Ad5 infection” value in the series with Ad5 [6] is listed as “some efficacy”. Further, in the series on Ad ocular infections, the “efficacy against Ad ocular infections” value was “Significant efficacy”. Besides, the efficacy/toxicity ratio entry in the series with Ad ocular infections (trial discontinued) is “narrow efficacy/toxicity ratio”. In the series with Ad (accumulation of the drug in renal proximal tubules), the “toxicity of systemic use” value is reported as “nephrotoxicity”. Besides, in the series with Ad (bone marrow transplant patients), the “efficacy against Ad-associated hemorrhagic cystitis and renal dysfunction” value is on record as “effective”. For the same molecule, in the series with Ad (disseminated Ad in pediatric liver transplant patient, Ad7 in B cell lymphoma adult patient with meningoencephalitis), the “resolution of Ad infection in case reports” value is recorded as “seemed to resolve”. Moreover, in the series on Ad (patients immunosuppressed because of stem cell and bone marrow transplants), the “efficacy against Ad” value is “some efficacy”. In addition, in the series on Ad (setting [8]), the dose-limiting nephrotoxicity result is “without dose-limiting nephrotoxicity” and the “suppression of Ad” value is “seemed to provide long term suppression of Ad”. Besides, the oral bioavailability result in [7] is “poor oral bioavailability”.
Take `NC(=O)c1ncn([C@@H]2O[C@H](CO)[C@@H](O)[C@H]2O)n1` [ribavirin]: the “inhibition of Ad replication by species” value in series [4] is “Only Species C was inhibited”.
